Test results taken from publication PMC9130998, “Paclitaxel binds and activates C5aR1: A new potential therapeutic target for the prevention of chemotherapy-induced peripheral neuropathy and hypersensitivity reactions” (Cell Death & Disease, 2022).

Biological target: T1, complement component 5a receptor 1 (C5aR1) (Homo sapiens, UniProt P21730)
T1 construct: recombinant human C5aR1 with a C-terminal c-Myc tag
T1 sequence (P21730 1-350): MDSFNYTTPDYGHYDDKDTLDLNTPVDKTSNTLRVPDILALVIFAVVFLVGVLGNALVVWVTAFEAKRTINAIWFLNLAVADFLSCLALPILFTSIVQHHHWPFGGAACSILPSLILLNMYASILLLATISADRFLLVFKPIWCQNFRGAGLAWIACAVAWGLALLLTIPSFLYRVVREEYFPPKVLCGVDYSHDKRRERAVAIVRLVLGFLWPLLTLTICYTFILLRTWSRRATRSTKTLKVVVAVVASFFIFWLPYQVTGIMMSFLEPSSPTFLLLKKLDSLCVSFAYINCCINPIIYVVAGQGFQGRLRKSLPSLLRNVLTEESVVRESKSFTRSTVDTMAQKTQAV
Assay: SPR (BIAcore X100) on immobilized receptor, dose-dependent
Assay type: binding

`CC(=O)O[C@@]12CO[C@@H]1C[C@H](O)[C@@]1(C)C(=O)[C@H](O)C3=C(C)[C@@H](OC(=O)[C@H](O)[C@@H](NC(=O)OC(C)(C)C)c4ccccc4)C[C@@](O)([C@@H](OC(=O)c4ccccc4)[C@H]21)C3(C)C` [docetaxel] was tested, and the “SPR (BIAcore X100) on immobilized receptor, dose-dependent” value was “similarly to paclitaxel, also docetaxel can bind C5aR1 receptor in a dose dependent way (Fig. S2A–D)”.
